Data: PubChem BioAssay (NCI)
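In this assay, cells in 96-well plates receive the compound at five concentrations for 48 hours. Endpoints are linearly interpolated between the surrounding concentrations. Abbreviation: GI50, concentration required for 50% inhibition of growth. The concentration for full growth arrest is given as TGI.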 Where a SMILES comes first, the peptide text is derived from it. The star is where a group is joined. OSu = O=C1CCC(=O)N1O*

Key:
Assay in all cases: growth of human tumour cells (NCI), 48 h
[1] = system: 786-0 renal
[2] = system: A549 NSCLC
[3] = system: BT-549 breast
[4] = system: HS 578T breast
[5] = system: IGROV1 ovarian
[6] = system: MOLT-4 leukemia
[7] = system: SK-MEL-5 melanoma
[8] = system: SK-OV-3 ovarian
[9] = system: ACHN renal
[10] = system: HCT-116 colon
[11] = system: SF-295 CNS
[12] = system: SK-MEL-2 melanoma
[13] = system: NCI-H522 lung
[14] = system: OVCAR-3 ovarian
[15] = system: OVCAR-5 ovarian

`Cc1ccc(Nc2nc(NNC(=O)Cc3ccccc3)nc(NNC(=O)c3ccncc3)n2)cc1` was tested, and the TGI [1] was > 10 µM, the TGI [2] was > 10 µM and the TGI [3] was > 10 µM. The TGI [4] was > 10 µM, the TGI [5] was > 10 µM and the TGI [6] was > 10 µM. For the same compound, the TGI [7] was > 10 µM and the TGI [8] was > 10 µM.
`CC1=NN(c2nc(N)nc(COc3ccc(N)cc3)n2)C(C)(C)C1` was tested, and the TGI [1] was > 100 µM, the TGI [9] was > 100 µM and the TGI [3] was > 100 µM. The TGI [10] was > 100 µM, the TGI [4] was > 100 µM and the TGI [5] was > 100 µM. The TGI [6] was > 100 µM, the TGI [11] was > 100 µM and the TGI [12] was > 100 µM. The TGI [7] was > 100 µM and the TGI [8] was > 100 µM.
With `COc1ccc(C2Oc3cc(OC)c(OC)cc3C2CCl)cc1OC` (stereo not drawn) the TGI [1] was > 100 µM, the TGI [2] was > 100 µM and the TGI [9] was > 100 µM. For the same compound, the TGI [10] was > 100 µM, the TGI [6] was > 100 µM and the TGI [13] was > 100 µM. The TGI [14] was > 100 µM, the TGI [15] was > 100 µM and the TGI [12] was > 100 µM. For the same compound, the TGI [7] was > 100 µM.
In the case of `NCCCCC(NC(=O)C(N)Cc1ccc(O)cc1)C(=O)NC(CCCCN)C(=O)NC(CCCCN)C(=O)ON1C(=O)CCC1=O` (stereo not drawn) (H-YKKK-OSu; configuration not given here), the TGI [1] was > 100 µM, the TGI [2] was > 100 µM and the TGI [9] was > 100 µM. The TGI [3] was > 100 µM, the TGI [10] was > 100 µM and the TGI [4] was > 100 µM. For the same compound, the TGI [5] was > 100 µM, the TGI [6] was > 100 µM and the TGI [15] was > 100 µM. For the same compound, the TGI [12] was > 100 µM and the TGI [7] was > 100 µM.
For `COc1cc(OCCN(C)C)c2[nH]c(C(=O)N3CC(CCl)c4ccc(N)cc43)cc2c1` (stereo not drawn), the TGI [1] was 1.47 µM, the TGI [2] was > 34.3 µM and the TGI [10] was 1.64 µM. The TGI [6] was 0.0522 µM, the TGI [14] was 0.607 µM and the TGI [15] was 5.63 µM. The TGI [12] was 0.0933 µM, the TGI [7] was 0.197 µM and the TGI [8] was 32 µM.
`Cc1cn(C2OC(CO[Si](C)(C)C(C)(C)C)C(N(C)O[Si](C)(C)C(C)(C)C)C2[Se]c2ccccc2)c(=O)[nH]c1=O` (stereo not drawn) was tested, and the TGI [1] was 9.29 µM, the TGI [2] was 49.5 µM and the TGI [9] was 18.3 µM. It also gave a TGI [10] of 19.9 µM, a TGI [4] of 7.58 µM and a TGI [5] of 28.2 µM. For the same compound, the TGI [6] was > 100 µM, the TGI [13] was 11.6 µM and the TGI [14] was 19.9 µM. It also gave a TGI [15] of 11.7 µM, a TGI [11] of 26 µM and a TGI [12] of 34 µM. The TGI [7] was 53.7 µM and the TGI [8] was > 100 µM.
For `COCCOCOC(CCCCO)c1cc(C)c(O[Si](C)(C)C(C)(C)C)c(C)c1` (stereo not drawn), the TGI [1] was 24.4 µM, the TGI [2] was 16.1 µM and the TGI [9] was 21.6 µM. For the same compound, the TGI [5] was 26.7 µM, the TGI [6] was 13.2 µM and the TGI [13] was 6 µM. It also gave a TGI [14] of 19.2 µM, a TGI [15] of 26.7 µM and a TGI [11] of 16.3 µM. The TGI [12] was 21.9 µM, the TGI [7] was 12.8 µM and the TGI [8] was 31.8 µM.
With `COc1cc(-c2cccs2)sc1-c1cccs1` the TGI [1] was > 100 µM, the TGI [2] was > 100 µM and the TGI [9] was > 100 µM. The TGI [10] was > 100 µM, the TGI [5] was > 100 µM and the TGI [6] was > 100 µM. The TGI [13] was > 100 µM, the TGI [14] was > 100 µM and the TGI [15] was > 100 µM. For the same compound, the TGI [11] was > 100 µM, the TGI [12] was > 100 µM and the TGI [7] was > 100 µM. The TGI [8] was > 100 µM.
With `O=c1[nH]c(=O)c2c3n(cc2[nH]1)CCCCC3` the TGI [1] was > 100 µM, the TGI [2] was > 100 µM and the TGI [9] was > 100 µM. For the same compound, the TGI [10] was > 100 µM, the TGI [4] was > 100 µM and the TGI [5] was > 100 µM. The TGI [6] was > 100 µM, the TGI [13] was > 100 µM and the TGI [15] was > 100 µM. For the same compound, the TGI [11] was > 100 µM, the TGI [7] was > 100 µM and the TGI [8] was > 100 µM.
With `Cc1[nH]c(=O)nc2sc(=NC3CCCCC3)n(C3CCCCC3)c(=O)c12` the TGI [1] was > 100 µM, the TGI [2] was > 100 µM and the TGI [9] was > 100 µM. The TGI [10] was > 100 µM, the TGI [5] was > 100 µM and the TGI [6] was > 100 µM. The TGI [13] was > 100 µM, the TGI [14] was > 100 µM and the TGI [15] was > 100 µM. The TGI [11] was > 100 µM, the TGI [12] was > 100 µM and the TGI [7] was > 100 µM. For the same compound, the TGI [8] was > 100 µM.
In the case of `O=[N+]([O-])c1ccc2nc(Nc3ccccc3)c(Nc3ccccc3)nc2c1`, the TGI [1] was 7.83 µM, the TGI [2] was 2.36 µM and the TGI [9] was 3.11 µM. For the same compound, the TGI [10] was 1.82 µM, the TGI [4] was 8.75 µM and the TGI [5] was 4.98 µM. The TGI [6] was > 100 µM, the TGI [13] was 1.33 µM and the TGI [15] was 6.93 µM. The TGI [11] was 2.4 µM, the TGI [12] was 4.49 µM and the TGI [7] was 2.82 µM. The TGI [8] was 2.88 µM.
`O=c1cc(-c2ccc3c(c2)OCO3)[nH]c2cc3c(cc12)OCO3` was tested, and the TGI [1] was > 100 µM, the TGI [2] was > 100 µM and the TGI [9] was > 100 µM. For the same compound, the GI50 [10] was 38 µM, the TGI [10] was > 100 µM and the TGI [5] was > 100 µM. For the same compound, the TGI [6] was > 100 µM, the TGI [13] was > 100 µM and the GI50 [14] was 19.5 µM. The TGI [14] was 43.2 µM, the GI50 [11] was 29.6 µM and the TGI [11] was 87.8 µM. The TGI [12] was > 100 µM, the GI50 [7] was 25.4 µM and the TGI [7] was > 100 µM. For the same compound, the TGI [8] was 99.4 µM.
In the case of `CCOC(=O)C12OC(OCC)(CC1(OCC)OCC)C1(CC1)C2=O` (stereo not drawn), the TGI [1] was > 100 µM, the TGI [2] was > 100 µM and the TGI [9] was > 100 µM. For the same compound, the TGI [3] was > 100 µM, the TGI [10] was > 100 µM and the TGI [5] was > 100 µM. The TGI [6] was > 100 µM, the TGI [14] was > 100 µM and the TGI [15] was > 100 µM. The TGI [11] was > 100 µM, the TGI [12] was > 100 µM and the TGI [7] was > 100 µM. The TGI [8] was > 100 µM.
With `CCOC(=O)c1nnn(CCCCO)c1C(=O)OCC` the TGI [1] was > 100 µM, the TGI [2] was > 100 µM and the TGI [3] was > 100 µM. The TGI [10] was > 100 µM, the TGI [4] was > 100 µM and the TGI [5] was > 100 µM. The TGI [6] was > 100 µM, the TGI [11] was > 100 µM and the TGI [12] was > 100 µM. The TGI [7] was > 100 µM.
With `O=C1c2cc3c(cc2CC12Cc1ccc4c(c1C2=O)CCC4)CCCC3` (stereo not drawn) the TGI [1] was > 100 µM, the TGI [2] was > 100 µM and the TGI [9] was > 100 µM. The TGI [10] was > 100 µM, the TGI [4] was > 100 µM and the TGI [5] was > 100 µM. For the same compound, the TGI [6] was > 100 µM, the TGI [13] was > 100 µM and the TGI [14] was > 100 µM. The TGI [15] was > 100 µM, the TGI [11] was > 100 µM and the TGI [12] was > 100 µM. The TGI [7] was > 100 µM and the TGI [8] was > 100 µM.
For `O=C(Nc1c(O)[nH]c(=S)[nH]c1=O)c1ccccc1`, the TGI [1] was > 100 µM, the TGI [2] was > 100 µM and the TGI [9] was > 100 µM. For the same compound, the TGI [10] was > 100 µM, the TGI [5] was > 100 µM and the TGI [6] was > 100 µM. The TGI [13] was > 100 µM, the TGI [14] was > 100 µM and the TGI [15] was > 100 µM. For the same compound, the TGI [11] was > 100 µM, the TGI [12] was > 100 µM and the TGI [7] was > 100 µM. For the same compound, the TGI [8] was > 100 µM.
In the case of `COc1ccccc1CC(=O)C(O)(C(F)(F)F)C(F)(F)F`, the TGI [1] was > 100 µM, the TGI [2] was > 100 µM and the TGI [9] was > 100 µM. For the same compound, the TGI [10] was > 100 µM, the TGI [4] was > 100 µM and the TGI [5] was > 100 µM. For the same compound, the TGI [6] was > 100 µM, the TGI [13] was > 100 µM and the TGI [14] was > 100 µM. The TGI [15] was > 100 µM, the TGI [11] was > 100 µM and the TGI [12] was > 100 µM. The TGI [7] was > 100 µM and the TGI [8] was > 100 µM.
In the case of `CCOC(=O)CCCSCCCC(=O)CCCSCCCC(=O)OCC`, the TGI [1] was > 100 µM, the TGI [2] was > 100 µM and the TGI [3] was > 100 µM. The TGI [10] was > 100 µM, the TGI [5] was > 100 µM and the TGI [6] was > 100 µM. For the same compound, the TGI [13] was > 100 µM, the TGI [14] was > 100 µM and the TGI [15] was > 100 µM. The TGI [11] was > 100 µM, the TGI [7] was > 100 µM and the TGI [8] was > 100 µM.
